The values that follow come from patent publication EP4480943A1, “NEW CLASS OF LIPIDS FOR DELIVERING ACTIVE INGREDIENTS INTO CELLS” (Oz Biosciences, priority 2023, dated 2024).

Data set [1] is described as follows: Encapsulation efficiency / loaded nucleic acid by SyBr Gold fluorescence after Triton X-100 disruption. It counts as physicochemical. How it is done: (§1) The size and charge of the collected LNPs are determined using DLS (Malvern Instruments NanoZS) by dissolving 50 µL of the collected solution in 950 µL of MilliQ water. Then, formed LNPs are destabilized by adding 1% v/v of Triton X-100 and incubate at 30°C for 1h and vortexing. After disruption of the formulation, a 1/100 solution of SyBr™Gold in water is prepared, and 0.5µL of it added to 49.5µL of the resulting mixture that includes Triton X-100. The SyBr™Gold is also added the same way to 49.5µL of a solution that contains non-disrupted LNPs, and to 49.5µL of the mRNA mother solution. Fluorescence of each sample is then read after 30 min incubation at RT using a Victor (Perkin Elmer) fluorimeter (excitation: 495nm; emission: 537nm ;). The encapsulation efficiency (ee(%)) is easily obtained from these fluorescence measurements using the formula below: ee (%) = ((Fluo_LNP1v%triton−Fluo_LNP))/(Fluo_RNAstock solution) × 100 [formula]

The test system of data set [2] is F-Luc mRNA expression. Briefly: In vivo transfection of F-Luc mRNA using LNPs, bioluminescence (IVIS imaging). As to conditions: nude mice, i.p. The source says: Lipids I, VI and XIV have been formulated into LNPs following the molar composition depicted before (Table 1). 5-methoxyuridine-modified mRNA encoding for Firefly Luciferase (OZ Biosciences, Cat: MRNA16-1000) has been entrapped into the LNP. […] Table 3: Main physical properties of mRNA(F-Luc) LNPs based on tunable lipids I, VI, XIV, and cationic lipid DOTAP
Overall, all LNPs formulations display consistent physico-chemical properties, controlled and reproducible size, charge, polydispersity and encapsulation rate to be used in small animals. A dose equivalent to 10 µg of mRNA has been injected i.p. (intra-peritoneally) in nude mice using three different LNPs. Tunable lipids I and XIV and DOTAP-based LNPs have been selected. Bioluminescence has been monitored over time using IVIS imaging system. […] Indeed 3h post injection, luminescence could be observed in all animals at different proportions (Figure 50). Specifically, F-Luc mRNA expression was higher in mice that received LNPs based on tunable lipids, whereas expression was much lower when DOTAP is used.

A short description of data set [3]: Size and charge of LNPs by DLS (Malvern NanoZS). The class given is physicochemical. How it is done:
Thin layer chromatographies (TLC) are carried out on aluminium plates covered with silica gel 60 Fasa (Merck). […] The synthesized products are purified on chromatography columns on silica. The flash chromatography separations are carried out on silica gel 60 (230-400 mesh ASTM) (Merck). Particle size and zeta potential measurements: The mean hydrodynamic particle size and charge measurements were performed using Dynamic Light Scattering (DLS) and Laser Doppler Velocimetry (LDV), respectively, using Malvern Nano ZS instrument and DTS software (Malvern Instruments, UK) in a water of Grade 2. Various amounts of cationic poloxamers were diluted in 100 µl of water and mixed with an equal volume of the same water containing DNA. The measurements were carried out in automatic mode and the results are presented as mean +/- SEM, n= 3. Each mean represents the average value of 30 measurements.
as §1

In data set [4] the test system is ovalbumin (OVA) antigen. Put plainly: In vivo immunization with OVA mRNA LNPs, ELISA and Elispot. The settings on record: C57BL6J mice, s.c. prime boost (D0-14), 10µg mRNA. The source says: In this context, the emergence of vaccine-based LNPs represents a clear opportunity to reach pathologies impossible to fight with more classical vaccine approach. The tunable lipid presented in this document could envisioned as potent pillar for future nucleic acid-based vaccine, due to their ground-breaking features in term of efficiency and safe character. Thus, LNPs based on tunable lipids I and XIV have been formulated to encapsulate unmodified mRNA coding for the ovalbumin (OVA) antigen (OZ Biosciences, Cat: MRNA42-1000) and their physico-chemical properties determined (Table 4). Table 4: Main physical properties of mRNA(OVA) LNPs based on tunable lipids I and XIV.
C57BL6J mice received a prime boost (D0-14) immunizations of OVA antigen delivered by mRNA-based LNPs or by recombinant protein (alone or adjuvanted with aluminium-based adjuvant). To characterize the immuno-phenotyping of the mice, the sera and splenocytes were collected at different time (D0, D14, D21, D28) and analysed by ELISA and Elispot. The mice were immunized by s.c (sub-cutaneous) route with 100µL per injection at 10µg OVA subunit and 10µg mRNA doses. Results are depicted in figures 51 and 52, mRNA-OVA LNP formulations are efficient at priming a strong humoral response upon sub-cutaneous prime boost injection (D0-14). Indeed, a strong antibody response was measured after prime boost immunization. […]
In general terms: In an ELISA, binding on a coated surface is turned into a signal by an enzyme label.

In data set [5] the test system is firefly luciferase. Put plainly: Biodistribution study of Luciferase mRNA LNPs, RT-PCR of organs. The class given is in vivo. The settings on record: nude mice, i.p., 10µg RNA dose, RT-PCR 6 hours after injection. The method, then:
Biodistribution study involving tunable lipids-based LNPs (lipids I, VI, and XIV) has also been conducted in nude mice that were injected i.p. with Luciferase mRNA formulated into 3 different LNPs formulations at 10µg RNA dose to evaluate the nucleic acid delivery into various organs. The liver, lung, kidney and spleen were collected and analysed through RT-PCR 6 hours after injection. As observed previously, tunable lipids-based LNPs are appropriately efficient to allow the observation and quantitation of Luciferase protein in quantity 6 hours after i.p. injection.

Where [6] appears, read: mRNA(F-Luc) LNPs, total lipid 5 mM, N/P 6.
[7] abbreviates: mRNA(GFP) LNPs, total lipid 3.75 mM, N/P 6.
The mark [8] stands for this setting: DNA pVectOZ (eGFP) LNPs, total lipid 3.91 mM, N/P 6.6.
Setting [9] is: DNA pVectOZ(Ppt) LNPs, total lipid 4 mM, N/P 10.
[10] abbreviates: mRNA(OVA) LNPs, total lipid 5 mM, N/P 6.
[11] abbreviates: DNA pVectOZ (F-Luc) LNPs, total lipid 4.6 mM, N/P 12.
Setting [12] is: NTsiRNA-Cy5 LNPs, DiO Label N, total lipid 4.74 mM, N/P 6.
The mark [13] stands for this setting: NTsiRNA-Cy5 LNPs, DiO Label Y, total lipid 4.74 mM, N/P 6.

On to `CCCCCCCC/C=C\CCCCCCCC(=O)OCC(C[N+](C)(C)C)OC(=O)CCCCCCC/C=C\CCCCCCCC` (stereo not shown) [DOTAP, I ,2-dioleoy-3-tri-methylarnmonium propane, reference compound], for which, in data set [1] (setting [6]), the “Encapsulation Efficiency” value stood at 91.5% and the “Loaded RNA” value is listed as 183 ng/µL. Further, in data set [2] (10 µg of mRNA, 3h post injection), the “F-Luc mRNA expression (bioluminescence)” value is given as “much lower”. In data set [3] (setting [6]), the PDI worked out at 0.23, the Size was determined as 96 nm and the Zeta entry was “+17 mV”.
Regarding `CCCCCCC/C=C\CCCCCCCCNC(=O)CCC(NC(=O)CCCN(C)C)C(=O)NCCCCCCCC/C=C\CCCCCCCC` (stereo not shown) [II], in data set [1] (setting [7]), the “Encapsulation Efficiency” value stood at 98.8% and the “Loaded RNA” value was 98.8 ng/µL. Further, in data set [3] (setting [7]), the PDI turned out to be 0.2, the Size turned out to be 113 nm and the Zeta was 5.57 mV.
With `CCCCCCCC/C=C\CCCCCCCCNC(=O)CCC(NC(=O)CN(C)C)C(=O)NCCCCCCCC/C=C\CCCCCCCC` (stereo not shown) [I], the “Encapsulation Efficiency” value in data set [1] (setting [8]) is reported as 83%; in data set [1] (setting [9]), 82%; in data set [1] (setting [6]) it was 97.5%; in data set [1] (setting [7]) it was 94.6%; in data set [1] (setting [10]), 98.1%. The “Loaded DNA” value in data set [1] (setting [8]) and in data set [1] (setting [9]) was 0.125 ng/µL each time. Further, the results for the “Loaded RNA” value in data set [1] (setting [6]), in data set [1] (setting [7]) and in data set [1] (setting [10]) were 195 ng/µL, 94.6 ng/µL and 98.1 ng/µL, respectively. Further, the “time of maximum bioluminescence signal post injection” value in data set [2] (10 µg mRNA) worked out at 6 h. For the same compound, in data set [2] (10 µg mRNA, over 25h), the “overall luminescence signal (kinetics)” value is listed as “highest overall luminescence signal”. Moreover, the PDI in data set [3] (setting [8]) is 0.044; in data set [3] (setting [9]), 0.079; in data set [3] (setting [6]), 0.09; in data set [3] (setting [10]), 0.153. Also, the Size in data set [3] (setting [8]) stood at 158.9 nm; in data set [3] (setting [9]), 173 nm; in data set [3] (setting [6]), 88 nm; in data set [3] (setting [10]), 111.4 nm. Further, the Zeta result in data set [3] (setting [8]) is given as “+4.61 mV”; in data set [3] (setting [9]) it was “+14.3 mV”; in data set [3] (setting [6]) it was -7.3 mV; in data set [3] (setting [7]), -9.3 mV; in data set [3] (setting [10]), -9.01 mV. In data set [4], the “immune response (initial response of IgG2c)” value is reported as “efficient in generating an immune response”. In addition, the “Luciferase gene expression in lung” value in data set [5] is reported as “high protein expression rate”. Further, the “Luciferase gene expression in spleen” value in data set [5] is on record as “high protein expression rate”.
On to `CCCCCCCC/C=C\CCCCCCCCNC(=O)CCC(NC(=O)CCC(=O)NCCSSCCNC(=O)CN(C)C)C(=O)NCCCCCCCC/C=C\CCCCCCCC` (stereo not shown) [VI], for which, in data set [1] (setting [6]), the “Encapsulation Efficiency” value amounted to 94% and the “Loaded RNA” value is recorded as 188 ng/µL. Also, in data set [1] (setting [7]), the “Encapsulation Efficiency” value stood at 84% and the “Loaded RNA” value was 84 ng/µL. Further, in data set [3] (setting [6]), the PDI is given as 0.13, the Size was determined as 115 nm and the Zeta is given as -2.25 mV. Besides, in data set [3] (setting [7]), the PDI is 0.344, the Size is on record as 117 nm and the Zeta entry was “+0.3 mV”. In data set [5], the “Luciferase gene expression in liver” value is listed as “rate comparable to those observed in the lungs” and the “Luciferase gene expression in spleen” value is “high delivery”.
In the case of `CCCCCCC/C=C\CCCCCCCCNC(=O)CCC(NC(=O)OCCN(CC)CC)C(=O)NCCCCCCCC/C=C\CCCCCCCC` (stereo not shown) [V], in data set [1] (setting [7]), the “Encapsulation Efficiency” value is given as 89% and the “Loaded RNA” value turned out to be 89 ng/µL.
Take `CCCCC/C=C\C/C=C\CCCCCCCCOC(=O)CCC(NC(=O)CCCN(C)C)C(=O)OCCCCCCCC/C=C\C/C=C\CCCCC` (stereo not shown) [XI]: in data set [1] (setting [11]), the “Encapsulation Efficiency” value is given as 92% and the “Loaded DNA” value is on record as 94 ng/µL. In data set [1] (setting [12]), the “Encapsulation Efficiency” value was >90% and the “Loaded siRNA” value is reported as 0.125 ng/µL. Further, in data set [1] (setting [13]), the “Encapsulation Efficiency” value was >90% and the “Loaded siRNA” value was 0.125 ng/µL. For the same compound, in data set [3] (setting [11]), the PDI amounted to 0.079, the Size was determined as 103 nm and the Zeta entry is given as “+16.5 mV”. For the same compound, in data set [3] (setting [12]), the PDI is 0.091, the Size turned out to be 116 nm and the Zeta result is “+18.2 mV”. In data set [3] (setting [13]), the PDI turned out to be 0.073, the Size stood at 99 nm and the Zeta result is listed as “+19.9 mV”. Also, in data set [3] (NTsiRNA-Cy5 LNPs, with or without DiO), the polydispersity index result is on record as “below 0.1”.
Consider `CCCCCCCC/C=C\CCCCCCCC(=O)NCCCC(NC(=O)CCCCCCC/C=C\CCCCCCCC)C(=O)NCCCn1ccnc1` (stereo not shown) [XV], for which, in data set [1] (setting [7]), the “Encapsulation Efficiency” value is recorded as 78.3% and the “Loaded RNA” value worked out at 78.3 ng/µL.
With `CCCCC/C=C\C/C=C\CCCCCCCCOC(=O)CCC(NC(=O)CN(C)C)C(=O)OCCCCCCCC/C=C\C/C=C\CCCCC` (stereo not shown) [X], in data set [1] (setting [7]), the “Encapsulation Efficiency” value was determined as 83.6% and the “Loaded RNA” value worked out at 83.6 ng/µL. Moreover, in data set [3] (setting [7]), the PDI stood at 0.109, the Size came to 141 nm and the Zeta entry is recorded as “+11.6 mV”.
